The subject of one series is HRV16. The series can be described thus: HRV16 HELA EC50 (cytopathic effect in H1-HeLa cells). The format is cell-based. The following applies: 96 h, read-out: HRV16 HELA EC50. In a few lines:
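Read-out is luminescent cell viability (CellTiter-Glo) after 96 h of infection at 33 °C, scaled between uninfected and infected-untreated wells. Before infection with titrated virus, compounds went onto H1-HeLa cells as triplicate 3-fold dilution series.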

Series [1] is described as follows: MT4 CC50 (cytotoxicity, Cell-Titer Glo). The following applies: human.
Experimental: (§1) HEp-2 (1.5×10^3 cells/well) and MT-4 (2×10^3 cells/well) cells were plated in 384-well plates and incubated with the appropriate medium containing 3-fold serially diluted compound ranging from 15 nM to 100,000 nM. Cells were cultured for 4-5 days at 37° C. Following the incubation, the cells were allowed to equilibrate to 25° C., and cell viability was determined by adding Cell-Titer Glo viability reagent. The mixture was incubated for 10 min, and the luminescence signal was quantified using an Envision plate reader. Untreated cell and cells treated at 2 μM puromycin (Sigma, St. Louis, MO) serve as 100% and 0% cell viability control, respectively.
A further series has as its system RSV A2. In words: RSV NHBE EC50 (RSV A2 antiviral assay in normal human bronchial epithelial cells). It is filed as cell-based. The following applies: human respiratory syncytial virus, NHBE, 96 h, read-out: RSV NHBE EC50.
Series [2] in a line: HEp-2 CC50 (cytotoxicity, Cell-Titer Glo). The following applies: human; uninfected HEp-2 cells, 4-5 days. It is filed as cell-based. Here is the method: The same protocol as for the determination of antiviral activity is used for the measurement of compound cytotoxicity except that the cells are not infected with RSV. Instead, an uninfected cell mixture at the same density is added at 20 ul/well to plates containing prediluted compounds, also at 100 nL/sample. Assay plates are then incubated for 4 days followed by a cell viability test using the same CellTiter Glo reagent addition and measurement of luminescent readouts.

The test system of the next series is RSV strain A2. The series can be described thus: RSV HEp-2 EC50 (infectious cytopathic cell protection assay). The format is cell-based. The following applies: human respiratory syncytial virus, HEp-2, 96 h, read-out: RSV HEp-2 EC50. In short, it runs like this: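 Percent inhibition of RSV-induced cytopathic effect came from remaining cell viability (CellTiter-Glo luminescence) after 4 days at 37° C. Compounds in 3-fold serial dilutions were exposed to an infectious mix of titered A2 virus and HEp-2 cells at 50,000/ml, with 0% and 100% inhibition control standards.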

A short description of another series: HELA CC50 (cytotoxicity). The following applies: human, HeLa cells.
A further series concerns DENV2 replicon. The series can be described thus: DENV-2 Huh-7 Rep EC50 (replicon luminescence). It is filed as cell-based. The following applies: Dengue virus, DENV2, Huh-7, 48 h, read-out: DENV-2 Huh-7 Rep EC50. In a few lines: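 EC50 derived from luminescence dose-response, normalised to DMSO-only 0% inhibition wells, after 1.5 h with EnduRen substrate. Compounds were first exposed for 48 h at 37° C to DENV2 replicon Huh-7 cells (5,000/well).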

The nature of series [3]: in vitro. The following applies: human.
Series [4] is described as follows: in vitro. The following applies: human. The source holds these as a separate data set.
Experimental: as §1

Like-named read-outs stand apart in the source and are kept apart here. A value given as a limit tells only on which side of the number the result lay.

For the molecule `CCOC(=O)c1ccccc1OP1(=O)OC[C@@]2(C#N)O[C@@H](c3ccc4c(N)ncnn34)[C@H](OC(=O)CC)[C@@H]2O1` (stereo partly drawn) [Example 230], the EC50 (usually the midpoint of the concentration-response curve) in the series on HRV16 is 11.5 µM; in the series with RSV A2, greater than 5 µM; with RSV strain A2 it was 1.65 µM; with DENV2 replicon, greater than 50 µM. Moreover, the CC50 (in series [1]; in series [2]; in “HELA CC50 (cytotoxicity)”) was greater than 50 µM throughout.

With `CC(C)OC(=O)[C@H](C)N[P@](=O)(OC[C@@]1(C#N)O[C@@H](c2ccc3c(N)ncnn23)[C@H](O)[C@@H]1OC(=O)C(C)(C)C)Oc1ccccc1` (single isomer, unassigned) [Example 239], the CC50 (in the series “in vitro [3]”; in the series “in vitro [4]”; in series [2]) was greater than 50 µM throughout. Also, the half-maximal effective concentration (EC50) in the series with HRV16 (H1-HeLa cells, 33° C.) is 1.12 µM; in the series on RSV A2 (NHBE cells, RSV A2, 4 days) it was 0.054 µM; with RSV strain A2 (HEp-2 cells, RSV A2, 4 days), 0.148 µM; in the series with DENV2 replicon (Huh-7 replicon cells, 48 hours) it was 25.4 µM.

In the case of `CC(C)OC(=O)[C@H](C)N[P@](=O)(OC[C@@]1(C#N)O[C@@H](c2ccc3c(N)ncnn23)[C@H](OC(=O)C(C)(C)C)[C@@H]1O)Oc1ccccc1` (single isomer, unassigned) [Example 238], the CC50 in “in vitro [3]” is greater than 50 µM; in the series “in vitro [4]” it was 45 µM; in series [2] it was greater than 50 µM. Also, the EC50 with HRV16 (H1-HeLa cells, 33° C.) was determined as 0.731 µM; with RSV A2 (NHBE cells, RSV A2, 4 days) it was 0.041 µM; in the series on RSV strain A2 (HEp-2 cells, RSV A2, 4 days) it was 0.091 µM; in the series with DENV2 replicon (Huh-7 replicon cells, 48 hours) it was 9.71 µM.
